{"source": "paper PMC4153893", "about": "“Synergetic cytotoxic activity toward breast cancer cells enhanced by the combination of Antp-TPR hybrid peptide targeting Hsp90 and Hsp70-targeted peptide” (BMC Cancer, 2014)", "key": {"[1]": {"test_system": "Hsp70 / Hsp70 promoter in BT20 cells", "assay": "Hsp70 expression (western blotting) and Hsp70 promoter activation (reporter assay, LV200 single-cell imaging)", "assay_type": "cell-based, human", "method": "Western blotting was carried out as described previously. Briefly, protein extracts were prepared from cells lysed with reporter lysis buffer (Promega, Madison, WI, USA), separated by SDS-PAGE and transferred to nitrocellulose filters using the iBlot system (Invitrogen, Carlsbad, CA, USA) according to the manufacturer’s protocol. Quenched membranes were probed with antibodies and analyzed using an enhanced reagent of Chemi-Lumi One Super (Nacalai Tesque) with a LAS-3000 LuminoImage analyzer (Fujifilm, Tokyo, Japan). Densitometric analysis was performed by Multi Gauge software V3.0 (Fujifilm) using the bands obtained from western blotting, in which actin as the loading control was used for normalizing of each bands.\nA reporter assay was carried out as described previously. […] The relative activity of firefly luciferase to Renilla luciferase activity was determined in triplicate (means ± SD) using the Dual-Glo Luciferase Assay System (Promega).\nStably transfected BT20 cells with pHsp70Pro-Luc were prepared after transient transfection with Lipofectamine LTX according to the manufacturer’s protocol in a selective medium containing 200 μg/ml hygromycine B (Nacalai Tesque). Luminescence images at the single-cell level were obtained using the LV200 luminescence imaging system (Olympus) as described previously. […]"}, "BT20 cells": {"test_system": "BT20 cells", "assay": "Cell viability assay (WST-8)", "assay_type": "cell-based, human", "method": "(§1) Cell viability was determined by WST-8 assay as described previously. Briefly, cells were seeded onto 96-well plates at 2000–3000 cells/well overnight. After incubating with the test peptides, the cell viability assay was carried out using Living Cell Count Reagent SF (Nacalai Tesque) according to the manufacturer’s protocol. Absorbance was measured at 450 nm using a 96-well microplate reader (GE Healthcare Bioscience, Piscataway, NJ)."}, "[2]": {"test_system": "BT20, MDA-MB-231, or MCF-10A cells", "assay": "Cellular uptake by flow cytometry", "assay_type": "cell-based, human", "settings": "BT20, MDA-MB-231, MCF-10A, Antp-TPR-TAMRA 10 μM, R11-Hsp70 or R11-Hsp70 scramble 10 μM, 30 min", "method": "Flow cytometry assay was performed as described previously. […] The cell pellets were resuspended, and then flow cytometry analysis was performed by FACSCalibur (BD Bioscience, San Jose, CA, USA). Data were analyzed using CellQuest Software (BD Bioscience). Annexin V and PI staining was performed using Annexin V-Fluorescein Staining Kit (Wako Chemicals, Osaka, Japan) by multiparametric flow cytometry assay as described previously."}, "MDA-MB-231 cells": {"test_system": "MDA-MB-231 cells", "assay": "Cell viability assay (WST-8)", "assay_type": "cell-based, human", "settings": "24 h", "method": "as §1"}, "cancer cells": {"test_system": "cancer cells", "settings": "in the presence of 2-phenylethynesulfonamide; cited from earlier work", "text": "It was recently reported that VER155008 could bind to the ..."}, "[3]": {"test_system": "MDA-MB-231, BT20, BT474, and MDA-MB-361 cell lines", "assay": "Cell viability assay (WST-8), summary over four breast cancer cell lines", "assay_type": "cell-based, human", "settings": "MDA-MB-231, BT20, BT474, MDA-MB-361; summary of Table 1; read-out: IC50 values of Antp-TPR alone, range over four cell lines", "method": "as §1"}, "BT474 cells": {"test_system": "BT474 cells", "assay": "Cell viability assay (WST-8)", "assay_type": "cell-based, human", "settings": "24 h, mean of three independent observations each performed in triplicate, read-out: IC50 of Antp-TPR", "method": "as §1"}, "MDA-MB-361 cells": {"test_system": "MDA-MB-361 cells", "assay": "Cell viability assay (WST-8)", "assay_type": "cell-based, human", "settings": "24 h, mean of three independent observations each performed in triplicate, read-out: IC50 of Antp-TPR", "method": "as §1"}, "[4]": {"test_system": "normal mammary epithelial cells (MCF-10A)", "assay": "Cell viability assay (WST-8)", "assay_type": "cell-based, human", "settings": "24 h, R11-Hsp70 10 μM where present, compared with cancer cell lines", "method": "as §1"}}, "note": "Ends that are not written are not given here."}
{"compound": "C=CCNC1=C2C[C@@H](C)C[C@H](OC)[C@H](O)[C@@H](C)/C=C(\\C)[C@H](OC(N)=O)[C@@H](OC)/C=C\\C=C(/C)C(=O)NC(=CC1=O)C2=O", "note": "[17-AAG, 17-allylamino-demethoxygeldanamycin]", "values": [{"measurement": "activation of the Hsp70 promoter", "setting": "[1]; BT20 cells with pHsp70Pro-Luc, Antp-TPR 20 μM, R11-Hsp70 10 μM, 17-AAG 0.5 μM, luminometer 18 h and LV200 single-cell imaging", "result": "induced activation at the single-cell level"}, {"measurement": "up-regulation of Hsp70 and the promoter activity of this protein", "setting": "[1]; BT20 cells, 0.5 μM 17-AAG, 6 h or 18 h western blotting, promoter assay 18 h", "result": "induced both"}]}
{"compound": "RRRRRRRRRRRGGGYCAYYSPRHKTTF [R11-Hsp70]", "values": [{"measurement": "effect on the cytotoxic activity of 17-AAG", "setting": "BT20 cells; R11-Hsp70 10 μM, 24 h", "result": "did not affect the cytotoxic activity of 17-AAG"}, {"measurement": "enhancement for cellular uptake of Antp-TPR", "setting": "[2]", "result": "higher than that of Antp-TPR by R11-Hsp70 scramble peptide"}]}
{"compound": "N#Cc1ccc(COC[C@H]2O[C@@H](n3c(NCc4ccc(Cl)c(Cl)c4)nc4c(N)ncnc43)[C@H](O)[C@@H]2O)cc1", "note": "[VER155008, reference compound]", "values": [{"measurement": "effect on the cytotoxic activity of 17-AAG", "setting": "BT20 cells; 5 μM VER155008, WST-8", "result": "did not have any synergetic effect on the cytotoxic activity of 17-AAG"}, {"measurement": "effect on the cytotoxic activity of Antp-TPR", "setting": "BT20 cells; 5 μM VER155008, WST-8", "result": "cytotoxic activity of Antp-TPR toward cancer cells was increased"}]}
{"compound": "RRRRRRRRRRRGGGTPTYRASCFYHYK [R11-Hsp70scramble]", "values": [{"measurement": "effect on the cytotoxic activity of Antp-TPR", "setting": "BT20 cells; R11-Hsp70scramble 10 μM, 24 h", "result": "no effective increase in the cytotoxic activity of Antp-TPR"}, {"measurement": "effect on the cytotoxic activity of Antp-TPR", "setting": "MDA-MB-231 cells; R11-Hsp70scramble 10 μM", "result": "no effective increase in the cytotoxic activity of Antp-TPR"}]}
{"compound": "NS(=O)(=O)C#Cc1ccccc1", "note": "[2-phenylethynesulfonamide]", "values": [{"measurement": "effect on the cytotoxic activity of 17-AAG", "setting": "cancer cells", "result": "the cytotoxic activity of 17-AAG was increased"}]}
{"compound": "RQIKIWFQNRRMKWKKKAYARIGNSYFK [Antp-TPR]", "values": [{"measurement": "IC50", "setting": "[3]", "result": "26 to 34", "unit": "µM"}, {"measurement": "IC50", "setting": "BT474 cells", "result": "34.1 ± 2.7", "unit": "µM"}, {"measurement": "IC50", "setting": "BT20 cells; 24 h, WST-8, mean of three independent observations each performed in triplicate, read-out: IC50 of Antp-TPR", "result": "26.1 ± 3", "unit": "µM"}, {"measurement": "IC50", "setting": "MDA-MB-231 cells; WST-8, mean of three independent observations each performed in triplicate, read-out: IC50 of Antp-TPR", "result": "31.2 ± 3", "unit": "µM"}, {"measurement": "IC50", "setting": "MDA-MB-361 cells", "result": "33.8 ± 2.6", "unit": "µM"}, {"measurement": "cytotoxic activity toward normal mammary epithelial cells", "setting": "[4]", "result": "less than that of these peptides against cancer cell lines"}]}
